The record followed here is patent publication US20160287571A1, “PHARMACEUTICAL COMPOSITIONS COMPRISING ANTIBACTERIAL AGENTS” (priority 2013, published 2016).

Holding throughout (format): cell-based, Acinetobacter baumannii
The test system of test [1] is A. baumannii G 156 (OXA 51, OXA 23). Nature of the test: MIC in Muller Hinton Agar (CLSI agar dilution). As to conditions: Acinetobacter baumannii; agent alone; A. baumannii G 156; read-out: MIC. The procedure:
(§1) The antibacterial activity of combinations according to the invention against resistant bacterial strains was investigated. Minimum Inhibitory Concentration (MIC) for the combinations according to invention was determined in Muller Hinton Agar (MHA) (BD, USA) according to Clinical and Laboratory Standards Institute (CLSI) recommendations (Clinical and Laboratory Standards Institute (CLSI), Performance Standards for Antimicrobial Susceptibility Testing, 20th Informational Supplement, M 100-S20, Volume 30, No. 1, 2010). Typically, the test strains were adjusted to deliver about 10^4 CFU per spot with a multipoint inoculator (Applied Quality Services, UK). The plates were pored with MHA containing doubling concentration range of the test combinations according to invention. The plates were inoculated and were incubated at 35° C. for 18 hours.
(In general: Agar dilution tests growth on a series of plates holding different concentrations.)

The test system of test [2] is A. baumannii J 144 (OXA 51, OXA 23). Nature of the test: MIC in Muller Hinton Agar (CLSI agar dilution). As to conditions: Acinetobacter baumannii; agent alone; A. baumannii J 144; read-out: MIC. As for the experimental part: as §1
Test [3] deals with A. baumannii M 126 (OXA 51, OXA 23). Description: MIC in Muller Hinton Agar (CLSI agar dilution). As to conditions: Acinetobacter baumannii; agent alone; A. baumannii M 126; read-out: MIC. The procedure:
as §1

The subject of test [4] is A. baumannii NCTC 13301 (OXA 51, OXA 23). Nature of the test: MIC in Muller Hinton Agar (CLSI agar dilution). The settings on record: Acinetobacter baumannii, NCTC13301; agent alone; A. baumannii NCTC 13301; read-out: MIC. As for the experimental part:
as §1

The test system of test [5] is A. baumannii NCTC 13302 (OXA 51, OXA 25). Nature of the test: MIC in Muller Hinton Agar (CLSI agar dilution). As to conditions: Acinetobacter baumannii, NCTC13302; agent alone; A. baumannii NCTC 13302; read-out: MIC. As for the experimental part:
as §1

Test [6] has as its system A. baumannii NCTC 13303 (OXA 51, OXA 26). Description: MIC in Muller Hinton Agar (CLSI agar dilution). The settings on record: Acinetobacter baumannii, NCTC13303; agent alone; A. baumannii NCTC 13303; read-out: MIC. As for the experimental part:
as §1

In test [7] the test system is A. baumannii NCTC 13304 (OXA 51, OXA 27). Nature of the test: MIC in Muller Hinton Agar (CLSI agar dilution). As to conditions: Acinetobacter baumannii, NCTC13304; agent alone; A. baumannii NCTC 13304; read-out: MIC. As for the experimental part:
as §1

Test [8] relates to A. baumannii NCTC 13305 (OXA 51, OXA 58). Nature of the test: MIC in Muller Hinton Agar (CLSI agar dilution). The settings on record: Acinetobacter baumannii, NCTC13305; agent alone; A. baumannii NCTC 13305; read-out: MIC. As for the experimental part: as §1
The test system of test [9] is A. baumannii Q 1460648 (OXA 51, OXA 23). Nature of the test: MIC in Muller Hinton Agar (CLSI agar dilution). As to conditions: Acinetobacter baumannii; agent alone; A. baumannii Q 1460648; read-out: MIC. The procedure:
as §1

The test system of test [10] is A. baumannii NCTC 13302 (OXA 51, OXA 25). Nature of the test: Time kill study. The settings on record: for Bacterial count: initial count 6.54 log CFU/ml. As for the experimental part:
(§2) The synergistic killing effect of the combinations according to invention was studied using time kill studies. In a typical time kill study, freshly grown cultures were diluted to the required cell density (initial starting inoculum) in Cation adjusted Muller Hinton broth medium (BD, USA). The antibacterial agents (either alone or in combination) at the required concentrations were added into the culture-containing medium. The samples were incubated under shaking condition (120 rpm) at 37° C. Enumeration of viable bacterial count was done every 2 hour by diluting in normal saline and plating on to the Tryptic Soya Agar plates (BD, USA). The plates were incubated for 24 hours to arrive at the viable bacterial count. The results are expressed in terms of Log CFU per […]. In general, the decrease of 1 Log CFU/ml, corresponds to 90% killing of bacteria. Similarly, 2 Log CFU/ml reductions indicates 99% killing of bacteria and 3 Log CFU/ml reductions is equal to 99.9% killing of bacteria.

Test [11] relates to A. baumannii NCTC 13304 (OXA 51, OXA 27). Description: Time kill study. The settings on record: for Bacterial count: initial count 6.06 log CFU/ml. The procedure: as §2
Setting [12] is: 2 hours, agent alone at 4 mcg/ml.
The mark [13] stands for this setting: 4 hours, agent alone at 4 mcg/ml.
The mark [14] stands for this setting: 6 hours, agent alone at 4 mcg/ml.

A word on the MIC: it is the lowest concentration that inhibits growth of the organism. Take `O=C(NNC(=O)[C@@H]1CC[C@@H]2CN1C(=O)N2OS(=O)(=O)O)[C@@H]1CCCNC1` [Compound of Formula (I), (2S, 5R)-sulphuric acid mono-[2-(N′-[(R)-piperidin-3-carbonyl]-hydrazinocarbonyl)-7-oxo-1,6-diaza-bicyclo[3.2.1]oct-6-yl] ester]: the MIC in test [1], in test [2], in test [3], in [4], in [5] and in test [6] was greater than 32 µg/mL throughout. In addition, the MIC in test [7], in test [8] and in [9] was greater than 32 µg/mL throughout. Further, the Bacterial count is 7.5 Log CFU/ml in test [10] (setting [12]); 7.8 Log CFU/ml in test [10] (setting [13]); 7.95 Log CFU/ml in test [10] (setting [14]); 8.4 Log CFU/ml in test [10] (8 hours, agent alone at 4 mcg/ml); 7 Log CFU/ml in [11] (setting [12]); 7.55 Log CFU/ml in [11] (setting [13]). Moreover, the Bacterial count in test [11] (setting [14]) turned out to be 8.1 Log CFU/ml. Besides, the “Effect on bacterial counts throughout the duration of the study (in words)” value was “did not reduce the bacterial counts” in test [10] (A. baumannii NCTC 13302, summary of Table 3) and “did not reduce the bacterial counts” in [11] (A. baumannii NCTC 13304, summary of Table 4).

Turning to `C[C@@H](O)[C@H]1C(=O)N2C(C(=O)O)=C(SCCN=CN)C[C@H]12` [Imipenem, imipenem], the MIC in test [1] is 16 µg/mL; in test [2], greater than 32 µg/mL; in test [3], 16 µg/mL; in test [4], 32 µg/mL; in test [5], greater than 32 µg/mL; in test [6], greater than 32 µg/mL. In addition, the MIC in test [7] stood at 32 µg/mL; in [8], 8 µg/mL; in test [9], 32 µg/mL. The Bacterial count stood at 7.87 Log CFU/ml in [10] (2 hours, agent alone at 8 mcg/ml); 8.27 Log CFU/ml in test [10] (4 hours, agent alone at 8 mcg/ml); 8.07 Log CFU/ml in test [10] (6 hours, agent alone at 8 mcg/ml); 8.47 Log CFU/ml in [10] (8 hours, agent alone at 8 mcg/ml); 6.34 Log CFU/ml in [11] (2 hours, agent alone at 16 mcg/ml); 7.47 Log CFU/ml in test [11] (4 hours, agent alone at 16 mcg/ml). In addition, in test [11] (6 hours, agent alone at 16 mcg/ml), the Bacterial count turned out to be 7.07 Log CFU/ml.
